Drawing on patent publication US5474988A, “5-phenylpyrrolo-1,4-benzoxazine and 5-phenylpyrrolo-1,4-benzothiazine compounds, process and intermediates for their production and pharmaceutical compositions containing them” (Kali-Chemie Pharma GmbH, priority 1993, dated 1995), this text covers inhibition for 4 compounds.

The test system of experiment [1] is P.A.F.-induced aggregation of blood platelets. In words: anti-P.A.F. action in vitro (P.A.F.-induced platelet aggregation). In kind it is cell-based. The note with it: Oryctolagus cuniculus, 10^-5 mole/liter, read-out: Anti-P.A.F. activity in vitro, % inhibition of the P.A.F.-induced aggregation of blood platelets from rabbit blood. The source says: 3. Determination of the anti-P.A.F. action in vitro.
P.A.F. (=Platelet Activating Factor=Platelet Aggregation Factor) is a phospholipid mediator which has a multiplicity of actions. The activation of blood platelet aggregation results in the induction of long-lasting bronchoconstrictions and hyperreactivity of the respiratory passages.
In this test, the effect of the test substances on platelet aggregation induced by addition of P.A.F. in a platelet suspension obtained from rabbit blood was investigated according to the method described by Mikashima et al. (Jap. J. Pharmacol. 44 (1987) 387-391).
A suspension of platelets obtained from rabbit blood was used which contains 4×10^9 platelets/ml in a modified Tyrode buffer solution (=Tyrode solution with the addition of 1.3 mM/l of CaCl2 and 2.5 g/l of gelatine) adjusted to pH 7.4. Tyrode solution is an aqueous solution containing, per liter, 136.9 mmole of NaCl, 2.68 mmole of KCl, 2.31 mmole of CaCl2, 1.0 mmole of MgCl2, 11.9 mmole of NaHCO3, 1.45 mmole of NaH2 PO4 and 5.55 mmole of glucose. The platelets were concentrated from 10 ml blood samples of three rabbits (New Zealand hybrids, body weight 3-4 kg) in each case. To accomplish this, the blood samples were treated with ethylenediaminetetraacetic acid and washed according to the method of Artley et al. (Brit. J. Haematol. 19 (1970), 7-17). A platelet-rich plasma was first separated by centrifugation (20 minutes at 400×g). The platelets were separated from the plasma by repeated centrifugation for 15 minutes at 1400×g.After the centrifugation, the blood platelets remaining in the sediment were resuspended in a Tyrode buffer solution (but without calcium). 0.4 mmole of lysine acetylsalicylate was then added, and the blood platelets were sedimented again after 15 minutes. The sediment was resuspended in the aforementioned modified Tyrode buffer solution, and the number of platelets in the suspension obtained was adjusted to the desired content.
A 40×10^-9 molar P.A.F. solution was employed as a reagent. This solution was prepared from a 1.8×10^-3 molar stock solution in chloroform. To do this, a 10 μl sample of the stock solution was evaporated to dryness and dissolved again in 180 μl of the modified Tyrode buffer solution, to which 0.25% of lipid-free bovine serum albumin had been added. 10^-5 molar working solutions were then prepared from this and stored frozen. Samples of these solutions were appropriately diluted for tests.
In order to carry out the test, 50 μl of the blood platelet suspension and 10 μl of a 40×10^-5 molar solution of the compound to be investigated were added to […] of the modified Tyrode buffer solution with stirring (1000 rpm) in an aggregation tube provided with a small magnetic stirrer. This corresponded to a final test substance concentration of 10^-5 mole/l. After a preincubation time of 90 seconds, 10 μl of the P.A.F. preparation were added. For 4-5 minutes, the aggregation occurring in the aggregation tube was measured by means of a computerized aggregometer.
The aggregation occurring in the test tubes containing only the platelet suspension is rated as 0%. The aggregation occurring in the test tubes containing platelet suspension and P.A.F. preparation, in which a P.A.F.-induced increase in platelet aggregation takes place, is rated as 100%. The aggregation still occurring after addition of the test substances is measured, and from this the inhibition of the P.A.F.-inducedincrease in aggregation which takes place is calculated in %.

In the next experiment the target is T1, 5-lipoxygenase (Cavia porcellus, UniProt A0A286X958).
T1 construct: The 5-LO was concentrated in a known manner from PMNs of male Dunkin-Hartley guinea-pigs; endogenous in cells; host or cells: peritoneal PMNs of male Dunkin-Hartley guinea-pigs, homogenized; 10,000 x g supernatant used as enzyme solution
T1 sequence (A0A286X958 1-674): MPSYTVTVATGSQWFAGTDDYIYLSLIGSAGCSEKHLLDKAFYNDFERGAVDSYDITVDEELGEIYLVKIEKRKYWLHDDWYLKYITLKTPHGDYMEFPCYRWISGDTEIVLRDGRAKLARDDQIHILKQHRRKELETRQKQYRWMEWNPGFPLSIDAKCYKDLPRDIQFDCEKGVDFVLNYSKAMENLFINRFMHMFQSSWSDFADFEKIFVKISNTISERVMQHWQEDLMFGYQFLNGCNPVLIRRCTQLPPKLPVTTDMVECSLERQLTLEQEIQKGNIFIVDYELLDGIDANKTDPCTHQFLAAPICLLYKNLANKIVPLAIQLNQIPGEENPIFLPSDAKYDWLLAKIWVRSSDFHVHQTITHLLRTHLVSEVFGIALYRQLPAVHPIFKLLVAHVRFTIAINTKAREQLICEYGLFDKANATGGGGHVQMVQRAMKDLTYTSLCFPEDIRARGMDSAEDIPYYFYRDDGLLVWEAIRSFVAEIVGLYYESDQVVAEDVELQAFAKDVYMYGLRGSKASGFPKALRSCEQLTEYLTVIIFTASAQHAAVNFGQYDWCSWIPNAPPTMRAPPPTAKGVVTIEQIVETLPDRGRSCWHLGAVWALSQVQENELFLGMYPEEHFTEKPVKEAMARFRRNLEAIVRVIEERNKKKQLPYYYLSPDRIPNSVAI
The experiment is described as follows: inhibitory activity on free 5-lipoxygenase concentrated from peritoneal PMNs of the guinea-pig (5-HETE formation). Format: biochemical. The note with it: 10^-5 mole/liter; guinea-pig 5-LO, 37° C.; read-out: In vitro % inhibitory activity on 5-HETE formation caused by free 5-LO. An excerpt: 4b. In vitro determination of inhibitory activity on 5-lipoxygenase concentrated from peritoneal PMNs of the guinea-pig.
An inhibition of 5-lipoxygenase can be caused by direct inhibitory action of the substances on the enzyme and/or by interference with the activation of the enzyme. While in test 4a the 5-lipoxygenase inhibition of the substances was investigated in rat PMN cells, in test 4b the inhibitory activity of the substances was investigated on free 5-LO concentrated from guinea-pig PMN cells according to the method of D. Aharony et al., J. Biol. Chem. 261 (1986), 11512-11519 (1986).
The 5-LO was concentrated in a known manner from PMNs of male Dunkin-Hartley guinea-pigs (body weight 400 to 500 g) as follows. 10 ml of a solution containing 27.9 g/l of sodium thioglycolate were injected i.p. into the animals in order to induce the PMN invasion as a result of this inflammatory stimulus. After 22 hours, the animals were sacrificed by lethal ether anaesthesia. 70 ml of HBSS without Ca^++ and Mg^++ ions and containing 0.2% by weight of sodium citrate were then injected into the abdominal cavity. The cell suspension (>80% of the cells are PMNs) was withdrawn from the abdominal cavity, filtered through a cheese-making filter cloth, and washed twice with a 50 mM potassium phosphate buffer solution of pH 7.4, which contained 0.5 mM ethylenediaminetetraacetic acid, 1% by weight of gelatine and 20 μM indomethacin. The cells were resuspended, and the PMN suspension containing 10^8 cells/ml was homogenized three times for 15 seconds each in an ice-bath in a homogenizer of the Labsonic™ type set at high speed. The resulting suspension was centrifuged at 4° C. (15 minutes at 10,000×g). The supernatant liquid was used for the investigation as a solution of the free 5-LO enzyme.
The experiments were carried out at 37° C. for 7 minutes using 0.625 ml samples of this enzyme solution. For the experiments, the enzyme solution (=equivalent of 2.5×10^7 cells), 0.5 mM glutathione, 1 mM ATP and 0.3 mM calcium chloride were added to test tubes. […] of the test substance were added to the samples dissolved in sufficient dimethylformamide such that the dimethylformamide concentration in each test tube is 0.5%. Only dimethylformamide was added to the control samples. After 2 minutes, the formation of 5-(S)-hydroxy-6,8,11,14-eicosatetraenoic acid (=[…]) was initiated by addition 10 μM arachidonic acid. After 5 minutes, the reaction was terminated by addition of 0.625 ml of a mixture of methyl acetate/methanol/0.2 m citric acid 15:2:0.5 v/v/v. 5-HETE was extracted twice using this solvent mixture. The 5-HETE-containing phases were combined and evaporated to dryness under a nitrogen atmosphere. The residue was taken up in a mixture of methanol/water/acetic acid 75:21:0.02 v/v/v having a pH of 5.7, and the solution was investigated for its content of 5-HETE by means of reverse phase HPLC. To accomplish this, a […] silanized silica gel column (Hichrom® ODS2, 250×4.6 mm) was employed as the adsorbent and a mixture of methanol/water/acetic acid 75:21:0.02 adjusted to pH 5.7 with ammonia and having a flow rate of 1 ml/min was used as the eluent. 5-HETE, which was eluted as a single peak after 20 minutes, was identified by comparison with standard solutions eluted at the same time and determined using a UV light detector at a wavelength of 235 nm. Quantitative determination was carried out by comparison of the peak area obtained with peak areas occurring in the calibrated standard solutions. From the 5-HETE contents of the samples determined, the inhibitory activity of the test substances was calculated in % inhibition of 5-HETE synthesis in comparison to the control samples containing no test substance.

As to `Cc1ccnc(N2CCN(C(=O)CC3Cn4c(-c5ccc(O)cc5)c(C)c5cccc(c54)O3)CC2)c1` (centres unmarked) [Example 17], the inhibition at 10 µM in experiment [1] is 99%; at 5-lipoxygenase, 100%.

For `Cc1ccnc(N2CCN(CCCCC3Cn4c(-c5cc(C)c(O)c(C)c5)c(C)c5cccc(c54)O3)CC2)c1` (centres unmarked) [Example 18], the inhibition at 10 µM was found to be 78% in experiment [1] and 100% on 5-lipoxygenase.

Regarding `Cc1ccnc(N2CCN(CCC3Cn4c(-c5ccc(O)cc5)c(C)c5c(F)ccc(c54)O3)CC2)c1` (centres unmarked) [Example 22], the inhibition at 10 µM was 84% in experiment [1] and 97% at 5-lipoxygenase.

Turning to `Cc1ccnc(N2CCN(C(=O)CCC3Cn4c(-c5cc(C)c(O)c(C)c5)c(C)c5c(F)ccc(c54)O3)CC2)c1` (centres unmarked) [Example 54], the inhibition at 10 µM in experiment [1] turned out to be 65%; at 5-lipoxygenase it was 63%.
